{
  "source": "patent US6500824B1",
  "about": "“Kappa (OP2) opioid receptor antagonists” (Regents of the University of Minnesota, priority 1998, dated 2002)",
  "key": {"[1]": {"target": "T1, kappa (OP2) opioid receptor (Cavia porcellus, UniProt P41144)", "T1 construct": "a strip of longitudinal muscle with the myenteric plexus attached was prepared; from tissue; host or cells: guinea pig ileal longitudinal muscle with myenteric plexus", "assay": "Guinea pig ileal longitudinal muscle (GPI) smooth muscle assay, antagonism of ethylketazocine (EKC)", "assay_type": "cell-based", "procedure": "(§1) 1. Guinea Pig Ileal Longitudinal Muscle (GPI). Ilea from guinea pigs were taken approximately 10 cm from the ileocecal junction, and a strip of longitudinal muscle with the myenteric plexus attached was prepared by the method of H. B. Rang et al., Brit. J Pharmacol., 1964, 22, 356. A 1 cm portion of this strip was then mounted between two platinum electrodes placed in a 10 ml organ bath and connected to an isometric transducer, contractions were recorded on a polygraph. Contractions of the ileal strip were initiated by supramaximal rectangular pulses in all preparations (80 V of 0.5 ms duration at a frequency of 0.1 Hz). Krebs bicarbonate solution containing […] chloropheniramine maleate was the bathing solution and was continuously bubbled with 95% O2 and 5% CO2. The organ bath was maintained at 36-37° C. The longitudinal strip was allowed to equilibrate with continuous stimulation for a minimum of 90 min. Cumulative concentration-response curves were determined after drugs were added to the bath in preselected amounts and washed out with buffer after noting their maximum effects.\n(§2) The standard agonists employed were [D-Ala^2, D-Leu^5]enkephalin (DADLE) (D), morphine (M) and ethylketazocine (EKC); these are selective for delta (D), mu (M) and kappa (EKC) opioid receptors, respectively. Concentration-response curves were obtained in the absence (control) and the presence of the antagonist and were determined as IC50 values. The IC50 ratio represents the IC50 in the presence of the antagonist divided by the control IC50 value in the same tissue. A concentration independent value of antagonist potency is calculated from the equation, Ke=[antagonist]/(IC50 ratio-1)."}, "[2]": {"test_system": "μ(OP3) opioid receptor", "assay": "Guinea pig ileal longitudinal muscle (GPI) smooth muscle assay, antagonism of morphine", "assay_type": "cell-based", "conditions": "agonist morphine, antagonist concentration 100 nM", "procedure": "as §1, §2"}, "[3]": {"target": "T2, δ(OP1) opioid receptor (Mus musculus, UniProt P32300)", "T2 construct": "Both vasa deferentia were dissected out of mice and mounted singly; from tissue; host or cells: mouse vas deferens", "assay": "Mouse vas deferens (MVD) smooth muscle assay, antagonism of DADLE", "assay_type": "cell-based", "procedure": "2. Mouse Vas Deferens (MvD). This assay was performed according to the description by G. Henderson et al., Brit. J. Pharmacol., 1972, 46,764. Both vasa deferentia were dissected out of mice and mounted singly through two platinum electrodes in a 10 ml organ bath. The bath contained Krebs bicarbonate solution that was continuously bubbled with 95% O2 and 5% CO2. The organ bath was maintained at 37° C. The tissue was attached to an isometric transducer and stimulated transmurally with rectangular pulses ([…], 1 ms duration, supramaximal voltage). Drugs were added cumulatively to the bath in preselected amounts and washed out after noting their maximum effects.\nas §2"}, "[4]": {"target": "T3, wt κ receptor (Rattus norvegicus, UniProt P34975)", "T3 construct": "expressed in transfected cells; host or cells: COS-7 (per the earlier reading)", "assay": "Competition binding with [3H]diprenorphine, whole cell binding, COS-7 cells, wt κ", "excerpt": "(§3) The effects of mutational exchange of Glu297 in the κ receptor and Lys303 in the μ receptor on the binding affinity of representative compounds of the invention were examined using techniques known in the art."}, "[5]": {"target": "T4, κ[E297K] receptor (Rattus norvegicus, UniProt P34975, E297K)", "T4 construct": "expressed in transfected cells; host or cells: COS-7 (per the earlier reading)", "assay": "Competition binding with [3H]diprenorphine, whole cell binding, COS-7 cells, κ[E297K]", "excerpt": "as §3"}, "[6]": {"target": "T5, wt μ receptor (Rattus norvegicus, UniProt P33535)", "T5 construct": "expressed in transfected cells; host or cells: COS-7 (per the earlier reading)", "assay": "Competition binding with [3H]diprenorphine, whole cell binding, COS-7 cells, wt μ", "excerpt": "as §3"}, "[7]": {"test_system": "wt μ receptor", "assay": "Competition binding with [3H]diprenorphine, whole cell binding, COS-7 cells, wt μ", "set-up": "species or system rat", "conditions": "wt μ", "excerpt": "as §3"}, "[8]": {"target": "T6, μ[K303E] receptor (Rattus norvegicus, UniProt P33535, K303E)", "T6 construct": "expressed in transfected cells; host or cells: COS-7 (per the earlier reading)", "assay": "Competition binding with [3H]diprenorphine, whole cell binding, COS-7 cells, μ[K303E]", "excerpt": "as §3"}, "[9]": {"target": "T7, kappa opioid receptor (Cavia porcellus, UniProt P41144)", "T7 construct": "a strip of longitudinal muscle with the myenteric plexus attached was prepared; from tissue; host or cells: guinea pig ileal longitudinal muscle with myenteric plexus", "assay": "GPI preparation, kappa antagonist potency against U-50488H", "assay_type": "cell-based, guinea pig", "conditions": "GPI; agonist U-50488H; read-out: Ke", "procedure": "as §1"}, "[10]": {"conditions": "GPI, agonist EKC, antagonist concentration 100 nM, read-out: Antagonist Potency Ke κ(OP2) EKC"}},
  "note": "Like-named read-outs stand apart in the source and are kept apart here.",
  "data": [
    {"smiles": "N#C/N=C(\\N)Nc1ccc2[nH]c3c(c2c1)C[C@@]1(O)C2Cc4ccc(O)c5c4[C@@]1(CCN2CC1CC1)C3O5", "note": "(stereo partly drawn) [Compound 19, 5′-N′-Cyano-N-[17-(cyclopropylmethyl)-6,7-didehydro4.5α-epoxy-3,14-dihydroxyindolo[2′,3′:6,7]morphinian]-Guanidine]", "values": [
      {"measurement": "Kb", "setting": "[1]", "value": 3.13, "unit": "nM"},
      {"measurement": "kappa opioid receptor selectivity (in words)", "setting": "[1]; in vitro, versus morphine and DADLE antagonism", "value": "demonstrated selectivity"},
      {"measurement": "Antagonist Potency Ke μ(OP3) Morphine", "setting": "[2]", "value": 16.13, "unit": "nM"},
      {"measurement": "Kb", "setting": "[3]", "value": 9.08, "unit": "nM"},
      {"measurement": "Ki", "setting": "[4]", "value": "0.27 ± 0.01", "unit": "nM"},
      {"measurement": "Fana = Ki(analog)/Ki(nor-BNI on the wt κ receptor)", "setting": "[4]; wt κ", "value": 2.25},
      {"measurement": "Ki", "setting": "[5]", "value": "2.48 ± 0.82", "unit": "nM"},
      {"measurement": "Fmut = mutational factor, Ki(mutant receptor)/Ki(wt κ receptor)", "setting": "[5]; κ[E297K]", "value": 9.2},
      {"measurement": "Ki", "setting": "[6]", "value": "4.04 ± 1.23", "unit": "nM"},
      {"measurement": "Fmut = mutational factor, Ki(mutant receptor)/Ki(wt κ receptor)", "setting": "[7]", "value": 15},
      {"measurement": "Ki", "setting": "[8]", "value": "0.29 ± 0.05", "unit": "nM"},
      {"measurement": "Fmut = mutational factor, Ki(mutant receptor)/Ki(wt κ receptor)", "setting": "[8]; μ[K303E]", "value": 1.1}
    ]},
    {"smiles": "CN(C)CCCN/C(=N\\C#N)Nc1ccc2[nH]c3c(c2c1)C[C@@]1(O)C2Cc4ccc(O)c5c4[C@@]1(CCN2CC1CC1)C3O5", "note": "(stereo partly drawn) [Compound 20, 5′-N-Cyano-N′-[3-(dimethylaminopropyl)]-N″-[17-(cyclopropylmethyl)6,7-didehydro4,5α-epoxy-3,14-dihydroxyindolo[2′,3′:6,7]morphinian]-guanidine]", "values": [
      {"measurement": "Kb", "setting": "[1]", "value": 0.24, "unit": "nM"},
      {"measurement": "Antagonist Potency Ke μ(OP3) Morphine", "setting": "[2]", "value": 10.4, "unit": "nM"}
    ]},
    {"smiles": "N#C/N=C(\\NCCN1CCCC1)Nc1ccc2[nH]c3c(c2c1)C[C@@]1(O)C2Cc4ccc(O)c5c4[C@@]1(CCN2CC1CC1)C3O5", "note": "(stereo partly drawn) [Compound 21, 5′-N-Cyano-N′-[2-(1-aminoethylpyrrolidine)]-N″-[17-(cyclopropylmethyl)-6,7-didehydro4,5α-epoxy-3,14dihydroxyindolo[2′,3′:6,7]morphinian]-guanidine]", "values": [
      {"measurement": "Kb", "setting": "[1]", "value": 0.47, "unit": "nM"},
      {"measurement": "Antagonist Potency Ke μ(OP3) Morphine", "setting": "[2]", "value": 5.71, "unit": "nM"},
      {"measurement": "Kb", "setting": "[3]", "value": 127, "unit": "nM"}
    ]},
    {"smiles": "Oc1ccc2c3c1O[C@H]1c4[nH]c5ccccc5c4C[C@@]4(O)[C@@H](C2)N(CC2CC2)CC[C@]314", "note": "[Naltrindole (NTI) 1, naltrindole, reference compound]", "values": [
      {"measurement": "Kb", "setting": "[1]; [10]", "value": 45, "unit": "nM"}
    ]},
    {"smiles": "Oc1ccc2c3c1O[C@H]1c4[nH]c5c(c4C[C@@]4(O)[C@@H](C2)N(CC2CC2)CC[C@]314)C[C@@]1(O)[C@H]2Cc3ccc(O)c4c3[C@@]1(CCN2CC1CC1)[C@H]5O4", "note": "[nor-BNI, norbinaltorphimine, reference compound]", "values": [
      {"measurement": "Kb", "setting": "[1]; [10]", "value": 0.56, "unit": "nM"},
      {"measurement": "Antagonist Potency Ke μ(OP3) Morphine", "setting": "[2]", "value": 13.7, "unit": "nM"},
      {"measurement": "Kb", "setting": "[9]", "value": 0.2, "unit": "nM"},
      {"measurement": "Ki", "setting": "[4]; [3H]diprenorphine competition, COS-7 whole cell binding, read-out: Ki ± SEM, wt κ", "value": "0.12 ± 0.04", "unit": "nM"},
      {"measurement": "Ki", "setting": "[5]; [3H]diprenorphine competition, COS-7 whole cell binding, read-out: Ki ± SEM, κ[E297K]", "value": "12.5 ± 0.92", "unit": "nM"}
    ]}
  ]
}
